Data: the kinase profiling compilation of Christmann-Franck et al. (2016)
Values belong to the compound of their own block, whether it stands above or below them.

Assays:
TTK (human) [1] = target: TTK (human) (UniProt P33981); assay: SelectScreen, TR FRET
DCLK1 (human) = DCLK1 (human) (UniProt O15075); assay: KINOMEscan competition binding; details: compound 10.0 µM
INSRR (human) = INSRR (human) (UniProt P14616); assay: KINOMEscan competition binding; details: compound 10.0 µM
CLK2 (human) = CLK2 (human) (UniProt P49760); assay: KINOMEscan competition binding; details: compound 10.0 µM
RPS6KA1 KD2 (human) = RPS6KA1 KD2 (human) (UniProt Q15418); assay: KINOMEscan competition binding; details: compound 10.0 µM
STK33 (human) = STK33 (human) (UniProt Q9BYT3); assay: KINOMEscan competition binding; details: compound 10.0 µM
PLK3 (human) = PLK3 (human) (UniProt Q9H4B4); assay: KINOMEscan competition binding; details: compound 10.0 µM
CAMK2A (human) = CAMK2A (human) (UniProt Q9UQM7); assay: KINOMEscan competition binding; details: compound 10.0 µM
TNK1 (human) = TNK1 (human) (UniProt Q13470); assay: KINOMEscan competition binding; details: compound 10.0 µM
INSR (human) = INSR (human) (UniProt P06213); assay: KINOMEscan competition binding; details: compound 10.0 µM
IGF1R (human) = IGF1R (human) (UniProt P08069); assay: KINOMEscan competition binding; details: compound 10.0 µM
CAMK1D (human) = CAMK1D (human) (UniProt Q8IU85); assay: KINOMEscan competition binding; details: compound 10.0 µM
MYLK (human) = MYLK (human) (UniProt Q15746); assay: KINOMEscan competition binding; details: compound 10.0 µM
CLK1 (human) = CLK1 (human) (UniProt P49759); assay: KINOMEscan competition binding; details: compound 10.0 µM
PTK2B (human) = PTK2B (human) (UniProt Q14289); assay: KINOMEscan competition binding; details: compound 10.0 µM
PLK4 (human) = PLK4 (human) (UniProt O00444); assay: KINOMEscan competition binding; details: compound 10.0 µM
RPS6KA6 KD2 (human) = RPS6KA6 KD2 (human) (UniProt Q9UK32); assay: KINOMEscan competition binding; details: compound 10.0 µM
ALK (human) = ALK (human) (UniProt Q9UM73); assay: KINOMEscan competition binding; details: compound 10.0 µM
PRKD1 (human) = PRKD1 (human) (UniProt Q15139); assay: KINOMEscan competition binding; details: compound 10.0 µM
FER (human) = FER (human) (UniProt P16591); assay: KINOMEscan competition binding; details: compound 10.0 µM
DAPK2 (human) = DAPK2 (human) (UniProt Q9UIK4); assay: KINOMEscan competition binding; details: compound 10.0 µM
GAK (human) = GAK (human) (UniProt O14976); assay: KINOMEscan competition binding; details: compound 10.0 µM
PTK2 (human) = PTK2 (human) (UniProt Q05397); assay: KINOMEscan competition binding; details: compound 10.0 µM
DAPK3 (human) = DAPK3 (human) (UniProt O43293); assay: KINOMEscan competition binding; details: compound 10.0 µM
TTK (human) [2] = target: TTK (human) (UniProt P33981); assay: KINOMEscan competition binding; details: for kinase still bound, per cent of control: compound 10.0 µM
DCLK2 (human) = DCLK2 (human) (UniProt Q8N568); assay: KINOMEscan competition binding; details: compound 10.0 µM
SLK (human) = SLK (human) (UniProt Q9H2G2); assay: KINOMEscan competition binding; details: compound 10.0 µM
PRKD3 (human) = PRKD3 (human) (UniProt O94806); assay: KINOMEscan competition binding; details: compound 10.0 µM
DAPK1 (human) = DAPK1 (human) (UniProt P53355); assay: KINOMEscan competition binding; details: compound 10.0 µM
RPS6KA2 KD2 (human) = RPS6KA2 KD2 (human) (UniProt Q15349); assay: KINOMEscan competition binding; details: compound 10.0 µM
PIM2 (human) [3] = target: PIM2 (human) (UniProt Q9P1W9); assay: SelectScreen, TR FRET
PIM1 (human) [4] = target: PIM1 (human) (UniProt P11309); assay: SelectScreen, TR FRET
MAPK10 (human) = MAPK10 (human) (UniProt P53779); assay: KINOMEscan competition binding; details: compound 10.0 µM
MAPK14 (human) = MAPK14 (human) (UniProt Q16539); assay: KINOMEscan competition binding; details: compound 10.0 µM
MAPK8 (human) = MAPK8 (human) (UniProt P45983); assay: KINOMEscan competition binding; details: compound 10.0 µM
CDK7 (human) = CDK7 (human) (UniProt P50613); assay: KINOMEscan competition binding; details: compound 10.0 µM
MYLK4 (human) = MYLK4 (human) (UniProt Q86YV6); assay: KINOMEscan competition binding; details: compound 10.0 µM
CSK (human) = CSK (human) (UniProt P41240); assay: KINOMEscan competition binding; details: compound 10.0 µM
HIPK1 (human) = HIPK1 (human) (UniProt Q86Z02); assay: KINOMEscan competition binding; details: compound 10.0 µM
TAOK1 (human) = TAOK1 (human) (UniProt Q7L7X3); assay: KINOMEscan competition binding; details: compound 10.0 µM
PIM2 (human) [5] = target: PIM2 (human) (UniProt Q9P1W9); assay: KINOMEscan competition binding; details: compound 10.0 µM
CDK16 (human) = CDK16 (human) (UniProt Q00536); assay: KINOMEscan competition binding; details: compound 10.0 µM
PIM3 (human) = PIM3 (human) (UniProt Q86V86); assay: KINOMEscan competition binding; details: compound 10.0 µM
PIM1 (human) [6] = target: PIM1 (human) (UniProt P11309); assay: KINOMEscan competition binding; details: compound 10.0 µM
MAPK9 (human) = MAPK9 (human) (UniProt P45984); assay: KINOMEscan competition binding; details: compound 10.0 µM
TLK2 (human) = TLK2 (human) (UniProt Q86UE8); assay: KINOMEscan competition binding; details: compound 10.0 µM
MAP2K3 (human) = MAP2K3 (human) (UniProt P46734); assay: KINOMEscan competition binding; details: compound 10.0 µM
MAPK12 (human) = MAPK12 (human) (UniProt P53778); assay: KINOMEscan competition binding; details: compound 10.0 µM
MAPK15 (human) = MAPK15 (human) (UniProt Q8TD08); assay: KINOMEscan competition binding; details: compound 10.0 µM
Chain of MAPK15 (human) (Q8TD08 whole entry, looked up): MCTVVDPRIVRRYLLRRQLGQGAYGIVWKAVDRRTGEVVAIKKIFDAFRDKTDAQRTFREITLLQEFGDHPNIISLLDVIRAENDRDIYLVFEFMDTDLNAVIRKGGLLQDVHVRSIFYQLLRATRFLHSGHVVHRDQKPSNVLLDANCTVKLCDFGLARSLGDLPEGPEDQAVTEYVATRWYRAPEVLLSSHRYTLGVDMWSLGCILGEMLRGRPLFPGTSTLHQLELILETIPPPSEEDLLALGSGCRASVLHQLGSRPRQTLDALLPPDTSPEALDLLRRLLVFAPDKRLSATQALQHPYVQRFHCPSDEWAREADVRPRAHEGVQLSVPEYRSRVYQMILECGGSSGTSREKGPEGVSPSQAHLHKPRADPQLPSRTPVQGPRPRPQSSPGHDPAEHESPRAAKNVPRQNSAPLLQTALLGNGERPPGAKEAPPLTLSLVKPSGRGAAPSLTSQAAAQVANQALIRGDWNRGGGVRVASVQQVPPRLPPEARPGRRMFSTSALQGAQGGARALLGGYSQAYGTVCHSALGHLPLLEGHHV

Chain of TTK (human) (P33981 whole entry, looked up): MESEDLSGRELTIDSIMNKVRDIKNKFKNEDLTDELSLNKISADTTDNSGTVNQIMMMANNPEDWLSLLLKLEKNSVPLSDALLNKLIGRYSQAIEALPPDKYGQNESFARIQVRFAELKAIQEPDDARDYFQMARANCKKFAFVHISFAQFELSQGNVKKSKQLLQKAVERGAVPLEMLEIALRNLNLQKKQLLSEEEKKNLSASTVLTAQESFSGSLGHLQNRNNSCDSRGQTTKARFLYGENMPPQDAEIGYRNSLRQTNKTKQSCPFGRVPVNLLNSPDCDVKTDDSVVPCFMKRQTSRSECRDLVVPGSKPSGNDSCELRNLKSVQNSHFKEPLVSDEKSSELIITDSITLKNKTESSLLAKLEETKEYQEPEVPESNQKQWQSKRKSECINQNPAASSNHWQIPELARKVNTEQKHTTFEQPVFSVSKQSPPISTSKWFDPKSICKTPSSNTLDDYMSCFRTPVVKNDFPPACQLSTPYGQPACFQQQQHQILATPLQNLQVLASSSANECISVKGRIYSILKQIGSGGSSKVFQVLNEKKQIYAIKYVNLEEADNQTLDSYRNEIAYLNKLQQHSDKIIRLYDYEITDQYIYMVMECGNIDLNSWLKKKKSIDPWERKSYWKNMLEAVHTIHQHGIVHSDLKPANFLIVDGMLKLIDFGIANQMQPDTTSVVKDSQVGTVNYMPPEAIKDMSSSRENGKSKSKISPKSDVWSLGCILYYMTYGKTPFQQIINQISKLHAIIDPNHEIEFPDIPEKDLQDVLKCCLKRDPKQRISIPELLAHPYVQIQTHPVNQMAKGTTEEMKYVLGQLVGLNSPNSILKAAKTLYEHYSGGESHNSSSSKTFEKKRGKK
Chain of CLK2 (human) (P49760 whole entry, looked up): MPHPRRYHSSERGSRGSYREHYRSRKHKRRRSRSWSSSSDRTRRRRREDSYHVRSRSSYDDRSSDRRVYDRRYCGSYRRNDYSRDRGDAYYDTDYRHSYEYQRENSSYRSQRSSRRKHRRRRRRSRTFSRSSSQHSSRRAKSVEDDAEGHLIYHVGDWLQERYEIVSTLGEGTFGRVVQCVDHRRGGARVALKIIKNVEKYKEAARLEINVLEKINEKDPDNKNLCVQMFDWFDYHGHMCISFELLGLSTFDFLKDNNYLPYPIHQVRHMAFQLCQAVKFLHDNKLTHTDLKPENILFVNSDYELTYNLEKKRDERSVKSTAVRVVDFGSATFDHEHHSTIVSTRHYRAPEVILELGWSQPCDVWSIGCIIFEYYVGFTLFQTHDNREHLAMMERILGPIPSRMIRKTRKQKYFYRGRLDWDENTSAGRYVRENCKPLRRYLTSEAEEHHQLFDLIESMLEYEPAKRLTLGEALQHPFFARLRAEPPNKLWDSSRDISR
Chain of RPS6KA1 KD2 (human) (Q15418 whole entry, looked up): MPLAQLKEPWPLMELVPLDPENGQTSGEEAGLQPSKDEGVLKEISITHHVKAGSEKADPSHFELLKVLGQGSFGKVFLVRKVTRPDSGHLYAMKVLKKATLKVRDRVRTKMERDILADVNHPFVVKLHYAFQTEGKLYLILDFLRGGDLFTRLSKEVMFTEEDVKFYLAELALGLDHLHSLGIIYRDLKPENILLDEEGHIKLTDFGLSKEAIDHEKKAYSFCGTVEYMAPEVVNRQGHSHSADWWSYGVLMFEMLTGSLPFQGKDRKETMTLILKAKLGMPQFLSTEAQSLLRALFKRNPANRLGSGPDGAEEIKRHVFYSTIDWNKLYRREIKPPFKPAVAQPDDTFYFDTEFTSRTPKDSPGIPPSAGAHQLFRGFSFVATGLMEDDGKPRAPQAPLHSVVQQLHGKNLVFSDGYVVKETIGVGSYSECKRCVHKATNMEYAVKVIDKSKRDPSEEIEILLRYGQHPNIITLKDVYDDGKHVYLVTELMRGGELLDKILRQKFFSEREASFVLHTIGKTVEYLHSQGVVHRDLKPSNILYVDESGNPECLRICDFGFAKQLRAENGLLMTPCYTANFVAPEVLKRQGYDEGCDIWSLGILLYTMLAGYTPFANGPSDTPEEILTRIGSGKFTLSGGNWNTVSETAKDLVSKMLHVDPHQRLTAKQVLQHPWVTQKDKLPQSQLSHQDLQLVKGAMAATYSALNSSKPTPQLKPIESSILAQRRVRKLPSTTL
Chain of PLK4 (human) (O00444 whole entry, looked up): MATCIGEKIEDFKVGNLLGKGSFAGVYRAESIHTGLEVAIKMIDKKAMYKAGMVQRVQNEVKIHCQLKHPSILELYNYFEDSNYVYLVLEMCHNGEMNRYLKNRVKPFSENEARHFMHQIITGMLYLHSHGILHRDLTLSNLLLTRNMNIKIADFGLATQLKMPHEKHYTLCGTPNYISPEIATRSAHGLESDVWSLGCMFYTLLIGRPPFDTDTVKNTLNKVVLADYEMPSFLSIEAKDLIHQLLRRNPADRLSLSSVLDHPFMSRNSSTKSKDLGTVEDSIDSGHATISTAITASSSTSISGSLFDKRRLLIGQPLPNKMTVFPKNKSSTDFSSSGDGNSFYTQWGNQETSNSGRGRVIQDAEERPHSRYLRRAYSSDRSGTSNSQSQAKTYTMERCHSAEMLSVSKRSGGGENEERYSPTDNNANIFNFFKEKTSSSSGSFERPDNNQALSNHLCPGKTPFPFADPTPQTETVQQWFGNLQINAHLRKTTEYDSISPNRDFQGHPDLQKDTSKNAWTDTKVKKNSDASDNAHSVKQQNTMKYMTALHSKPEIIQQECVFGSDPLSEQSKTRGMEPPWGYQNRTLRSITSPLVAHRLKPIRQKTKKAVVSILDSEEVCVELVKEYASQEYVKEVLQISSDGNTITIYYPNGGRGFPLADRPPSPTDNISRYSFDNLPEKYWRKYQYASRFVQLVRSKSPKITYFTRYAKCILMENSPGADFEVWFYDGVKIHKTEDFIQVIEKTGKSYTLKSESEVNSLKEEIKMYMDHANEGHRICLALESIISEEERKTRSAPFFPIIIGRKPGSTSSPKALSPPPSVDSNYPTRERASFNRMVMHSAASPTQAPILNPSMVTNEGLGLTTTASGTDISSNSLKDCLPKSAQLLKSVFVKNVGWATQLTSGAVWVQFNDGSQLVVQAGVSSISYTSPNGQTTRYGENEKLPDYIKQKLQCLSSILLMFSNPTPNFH
Chain of PIM1 (human) (P11309 whole entry, looked up): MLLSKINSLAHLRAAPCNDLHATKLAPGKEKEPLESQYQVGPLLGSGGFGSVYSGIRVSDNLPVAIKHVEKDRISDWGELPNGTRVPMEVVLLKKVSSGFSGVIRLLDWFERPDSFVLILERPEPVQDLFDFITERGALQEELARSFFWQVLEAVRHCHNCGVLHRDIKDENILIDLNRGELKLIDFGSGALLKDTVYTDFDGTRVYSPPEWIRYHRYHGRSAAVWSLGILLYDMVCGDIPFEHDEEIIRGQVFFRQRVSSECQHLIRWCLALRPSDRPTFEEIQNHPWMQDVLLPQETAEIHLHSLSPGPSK
Chain of PIM2 (human) (Q9P1W9 whole entry, looked up): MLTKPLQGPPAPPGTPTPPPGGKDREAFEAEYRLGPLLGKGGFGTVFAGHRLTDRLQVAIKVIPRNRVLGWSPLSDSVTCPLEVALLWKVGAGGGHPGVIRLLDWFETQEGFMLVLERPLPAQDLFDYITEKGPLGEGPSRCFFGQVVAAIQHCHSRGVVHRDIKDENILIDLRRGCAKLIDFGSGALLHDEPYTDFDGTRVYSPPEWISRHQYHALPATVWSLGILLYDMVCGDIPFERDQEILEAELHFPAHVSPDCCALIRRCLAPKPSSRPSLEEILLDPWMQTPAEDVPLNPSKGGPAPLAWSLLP
Chain of CAMK1D (human) (Q8IU85 whole entry, looked up): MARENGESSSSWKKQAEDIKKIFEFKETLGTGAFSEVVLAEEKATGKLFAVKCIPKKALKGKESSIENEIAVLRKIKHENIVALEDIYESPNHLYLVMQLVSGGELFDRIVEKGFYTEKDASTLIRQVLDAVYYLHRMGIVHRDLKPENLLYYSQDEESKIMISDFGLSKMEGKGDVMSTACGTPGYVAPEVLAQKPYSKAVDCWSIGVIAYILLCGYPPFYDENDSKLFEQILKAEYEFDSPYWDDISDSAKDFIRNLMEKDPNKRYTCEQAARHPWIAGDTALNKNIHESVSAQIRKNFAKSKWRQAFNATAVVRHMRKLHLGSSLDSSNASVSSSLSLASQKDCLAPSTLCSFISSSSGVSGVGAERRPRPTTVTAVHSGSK
Chain of MAP2K3 (human) (P46734 whole entry, looked up): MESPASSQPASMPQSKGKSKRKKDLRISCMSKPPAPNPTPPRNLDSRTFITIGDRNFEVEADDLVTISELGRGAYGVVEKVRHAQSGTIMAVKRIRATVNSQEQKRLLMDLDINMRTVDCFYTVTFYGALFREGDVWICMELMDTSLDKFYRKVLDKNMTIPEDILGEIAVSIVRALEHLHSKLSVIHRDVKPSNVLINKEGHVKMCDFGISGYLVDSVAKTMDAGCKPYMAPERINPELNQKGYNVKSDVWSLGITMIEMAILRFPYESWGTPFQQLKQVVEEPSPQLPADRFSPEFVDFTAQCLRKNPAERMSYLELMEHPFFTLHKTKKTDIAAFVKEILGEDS

IC50 (TTK (human) [1]): 2.28 µM
kinase still bound, per cent of control (DCLK1 (human)): 6.1%
kinase still bound, per cent of control (INSRR (human)): 19%
kinase still bound, per cent of control (CLK2 (human)): 21%
kinase still bound, per cent of control (RPS6KA1 KD2 (human)): 25%
kinase still bound, per cent of control (STK33 (human)): 5.2%
kinase still bound, per cent of control (PLK3 (human)): 0%
kinase still bound, per cent of control (CAMK2A (human)): 21%
kinase still bound, per cent of control (TNK1 (human)): 28%
kinase still bound, per cent of control (INSR (human)): 32%
kinase still bound, per cent of control (IGF1R (human)): 20%
kinase still bound, per cent of control (CAMK1D (human)): 29%
kinase still bound, per cent of control (MYLK (human)): 2.2%
kinase still bound, per cent of control (CLK1 (human)): 27%
kinase still bound, per cent of control (PTK2B (human)): 26%
kinase still bound, per cent of control (PLK4 (human)): 11%
kinase still bound, per cent of control (RPS6KA6 KD2 (human)): 14%
kinase still bound, per cent of control (ALK (human)): 16%
kinase still bound, per cent of control (PRKD1 (human)): 28%
kinase still bound, per cent of control (FER (human)): 33%
kinase still bound, per cent of control (DAPK2 (human)): 12%
kinase still bound, per cent of control (GAK (human)): 4.2%
kinase still bound, per cent of control (PTK2 (human)): 2.6%
kinase still bound, per cent of control (DAPK3 (human)): 11%
Kd (TTK (human) [2]): 0.576 µM
kinase still bound, per cent of control (TTK (human) [2]): 5.2%
kinase still bound, per cent of control (DCLK2 (human)): 8.6%
kinase still bound, per cent of control (SLK (human)): 12%
kinase still bound, per cent of control (PRKD3 (human)): 32%
kinase still bound, per cent of control (DAPK1 (human)): 4%
kinase still bound, per cent of control (RPS6KA2 KD2 (human)): 14%
Compound: COc1cc(C(=O)NC2CCN(C)CC2)ccc1Nc1ncc2c(n1)N(C1CCCC1)CCC(=O)N2C

IC50 (PIM2 (human) [3]): 6.45 µM
IC50 (PIM1 (human) [4]): 1.89 µM
kinase still bound, per cent of control (CLK2 (human)): 33%
kinase still bound, per cent of control (RPS6KA1 KD2 (human)): 31%
kinase still bound, per cent of control (MAPK10 (human)): 22%
kinase still bound, per cent of control (MAPK14 (human)): 21%
kinase still bound, per cent of control (MAPK8 (human)): 33%
kinase still bound, per cent of control (CDK7 (human)): 22%
kinase still bound, per cent of control (MYLK4 (human)): 24%
kinase still bound, per cent of control (CSK (human)): 31%
kinase still bound, per cent of control (HIPK1 (human)): 4.3%
kinase still bound, per cent of control (TAOK1 (human)): 9.2%
kinase still bound, per cent of control (PLK4 (human)): 0.7%
kinase still bound, per cent of control (PIM2 (human) [5]): 3.4%
kinase still bound, per cent of control (CDK16 (human)): 0.45%
kinase still bound, per cent of control (PIM3 (human)): 2.9%
kinase still bound, per cent of control (PIM1 (human) [6]): 3.5%
kinase still bound, per cent of control (MAPK9 (human)): 8.1%
kinase still bound, per cent of control (TTK (human) [2]): 9%
kinase still bound, per cent of control (TLK2 (human)): 33%
kinase still bound, per cent of control (MAP2K3 (human)): 16%
kinase still bound, per cent of control (MAPK12 (human)): 33%
Compound: CN(C)C1=NC(=O)/C(=C/c2ccc(-c3ccc(S(N)(=O)=O)cc3)o2)S1
kinase still bound, per cent of control (MAPK15 (human)): 19%
